Data as given in BigSolDB 2.1.

C=C(C)[C@@H]1CC[C@]2(C(=O)O)CC[C@]3(C)[C@H](CC[C@@H]4[C@@]5(C)CCC(=O)C(C)(C)[C@@H]5CC[C@]43C)[C@@H]12
solubility (mole fraction)
Settings	278.15 K	283.15 K	288.15 K	293.15 K	298.15 K	303.15 K	308.15 K	313.15 K	318.15 K
in 2-methoxyethanol	0.00863	0.00923	0.00969	0.0103	0.0108	0.0117	0.0127	0.0137	0.0149
in 2-propoxyethanol	0.0239	0.0248	0.025	0.0264	0.0274	0.0288	0.03	0.0314	0.0331
in ethanol	0.00376	0.00399	0.00454	0.00503	0.00566	0.00617	0.00693	0.00757	0.00848
in isopropanol	0.00531	0.00564	0.00651	0.0075	0.00865	0.00968	0.0114	0.0138	0.0158
in methanol	0.00129	0.00136	0.00146	0.00157	0.00171	0.00192	0.00211	0.00234	0.0027
in n-propanol	0.00728	0.00762	0.00827	0.00914	0.0104	0.0116	0.0131	0.0144	0.0163
